Measurements reported in ChEMBL document CHEMBL5465560, “Selectivity Literature for EUbOPEN Chemogenomic Library” (2024).
Each block holds one molecule with its values, some of them ahead of it.

Legend:
[1] = target: Tyrosine-protein kinase Fyn (Homo sapiens) (UniProt P06241); experiment: Selectivity interaction (ActivX KiNativ screen (kinase selectivity in THP-1 cell lysates)) EUB0000639a FYN; type: subcellular; settings: lysate, at 0.04 µM
[2] = target: Mitogen-activated protein kinase 10 (Homo sapiens, UniProt P53779); experiment: Selectivity interaction (ActivX KiNativ screen (kinase selectivity in THP-1 cell lysates)) EUB0000639a MAPK10; type: subcellular; settings: lysate
[3] = target: T1, Activin receptor type-1 (Homo sapiens) (UniProt Q04771); settings: at 10 µM
T1 sequence (whole entry): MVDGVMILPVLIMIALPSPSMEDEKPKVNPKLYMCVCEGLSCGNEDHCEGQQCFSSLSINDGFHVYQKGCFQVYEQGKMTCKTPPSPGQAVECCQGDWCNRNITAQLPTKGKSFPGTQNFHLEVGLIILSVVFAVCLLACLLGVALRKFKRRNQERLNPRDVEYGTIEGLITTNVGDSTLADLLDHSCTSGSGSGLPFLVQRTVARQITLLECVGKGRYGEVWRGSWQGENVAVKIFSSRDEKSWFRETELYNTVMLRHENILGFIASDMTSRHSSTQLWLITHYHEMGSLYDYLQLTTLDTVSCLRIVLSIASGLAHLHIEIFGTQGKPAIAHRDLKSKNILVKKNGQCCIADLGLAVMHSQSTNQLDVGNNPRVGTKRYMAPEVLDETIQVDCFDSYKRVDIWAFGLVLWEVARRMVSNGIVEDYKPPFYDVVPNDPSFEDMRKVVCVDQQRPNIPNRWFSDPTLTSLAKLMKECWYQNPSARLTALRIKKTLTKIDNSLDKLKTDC

[4] = target: Casein kinase II subunit alpha (Homo sapiens, UniProt P68400); experiment: Selectivity interaction (KinomeScan (DiscoverX)) EUB0000229b CSNK2A1; settings: at 10 µM
[5] = target: T2, Dual specificity mitogen-activated protein kinase kinase 4 (Homo sapiens) (UniProt P45985); experiment: Selectivity interaction (KinomeScan (DiscoverX)) EUB0000045b MAP2K4
T2 sequence (whole entry): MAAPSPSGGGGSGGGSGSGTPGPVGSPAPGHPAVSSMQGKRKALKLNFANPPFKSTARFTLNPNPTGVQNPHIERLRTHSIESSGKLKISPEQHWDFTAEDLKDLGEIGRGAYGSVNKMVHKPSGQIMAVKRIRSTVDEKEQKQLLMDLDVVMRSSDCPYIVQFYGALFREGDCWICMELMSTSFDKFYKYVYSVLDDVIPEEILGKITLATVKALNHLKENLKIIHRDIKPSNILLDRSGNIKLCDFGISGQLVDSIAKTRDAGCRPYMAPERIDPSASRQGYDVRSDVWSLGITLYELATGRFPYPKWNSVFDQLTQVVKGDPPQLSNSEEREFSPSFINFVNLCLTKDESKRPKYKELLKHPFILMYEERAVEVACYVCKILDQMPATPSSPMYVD

[6] = target: T3, Serine/threonine-protein kinase TBK1 (Homo sapiens) (UniProt Q9UHD2); experiment: Selectivity interaction (ActivX KiNativ screen (ex vivo kinase selectivity in human PBMCs)) EUB0001619a TBK1; type: cell-based; settings: PBMC, at 1 µM
T3 sequence (whole entry): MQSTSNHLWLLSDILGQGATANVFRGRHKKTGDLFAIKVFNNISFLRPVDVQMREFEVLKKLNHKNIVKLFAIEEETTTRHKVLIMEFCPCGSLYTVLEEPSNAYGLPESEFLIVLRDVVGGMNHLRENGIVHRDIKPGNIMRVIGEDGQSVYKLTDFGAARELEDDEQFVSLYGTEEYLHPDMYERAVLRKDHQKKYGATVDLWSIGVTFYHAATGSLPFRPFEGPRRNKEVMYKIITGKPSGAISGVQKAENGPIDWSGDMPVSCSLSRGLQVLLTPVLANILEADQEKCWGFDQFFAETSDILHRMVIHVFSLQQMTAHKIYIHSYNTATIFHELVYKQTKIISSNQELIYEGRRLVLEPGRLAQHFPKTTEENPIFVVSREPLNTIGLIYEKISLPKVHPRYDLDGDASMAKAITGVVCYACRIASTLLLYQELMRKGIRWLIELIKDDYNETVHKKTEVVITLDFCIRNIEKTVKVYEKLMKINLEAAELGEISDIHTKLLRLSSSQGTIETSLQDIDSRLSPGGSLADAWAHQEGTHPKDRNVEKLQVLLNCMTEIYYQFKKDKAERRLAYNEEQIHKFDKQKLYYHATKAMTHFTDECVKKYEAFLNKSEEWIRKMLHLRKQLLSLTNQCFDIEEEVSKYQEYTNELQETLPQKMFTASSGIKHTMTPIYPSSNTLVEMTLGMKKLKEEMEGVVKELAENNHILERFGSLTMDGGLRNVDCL

[7] = target: T4, STE20-related kinase adapter protein alpha (Homo sapiens) (UniProt Q7RTN6); experiment: Selectivity interaction (Kinase panel (KiNativ target engagement assay in Jurkat cells)) EUB0001635a STRADA; type: cell-based; settings: Selectivity number of off-targets 0.0, Selectivity number of targets 233.0, Source Knowledge https://www.sciencedirect.com/science/article/pii/S2451945619300674?via%3Dihub, at 1 µM
T4 sequence (whole entry): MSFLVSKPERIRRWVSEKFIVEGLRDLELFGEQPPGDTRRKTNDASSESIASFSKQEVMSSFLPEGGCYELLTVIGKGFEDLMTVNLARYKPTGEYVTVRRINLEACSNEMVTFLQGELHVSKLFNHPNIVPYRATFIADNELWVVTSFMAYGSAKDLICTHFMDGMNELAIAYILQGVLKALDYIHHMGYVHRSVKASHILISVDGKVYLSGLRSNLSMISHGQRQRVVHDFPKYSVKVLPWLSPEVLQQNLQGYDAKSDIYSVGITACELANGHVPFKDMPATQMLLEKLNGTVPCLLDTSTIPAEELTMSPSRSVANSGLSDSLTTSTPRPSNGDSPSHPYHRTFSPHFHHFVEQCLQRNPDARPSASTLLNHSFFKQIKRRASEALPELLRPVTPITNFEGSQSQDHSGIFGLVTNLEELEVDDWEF

[8] = target: Serine/threonine-protein kinase mTOR (Homo sapiens, UniProt P42345); experiment: Selectivity interaction (KinomeScan (DiscoverX)) EUB0000666a MTOR; settings: at 10 µM

Chain of Mitogen-activated protein kinase 10 (P53779 whole entry): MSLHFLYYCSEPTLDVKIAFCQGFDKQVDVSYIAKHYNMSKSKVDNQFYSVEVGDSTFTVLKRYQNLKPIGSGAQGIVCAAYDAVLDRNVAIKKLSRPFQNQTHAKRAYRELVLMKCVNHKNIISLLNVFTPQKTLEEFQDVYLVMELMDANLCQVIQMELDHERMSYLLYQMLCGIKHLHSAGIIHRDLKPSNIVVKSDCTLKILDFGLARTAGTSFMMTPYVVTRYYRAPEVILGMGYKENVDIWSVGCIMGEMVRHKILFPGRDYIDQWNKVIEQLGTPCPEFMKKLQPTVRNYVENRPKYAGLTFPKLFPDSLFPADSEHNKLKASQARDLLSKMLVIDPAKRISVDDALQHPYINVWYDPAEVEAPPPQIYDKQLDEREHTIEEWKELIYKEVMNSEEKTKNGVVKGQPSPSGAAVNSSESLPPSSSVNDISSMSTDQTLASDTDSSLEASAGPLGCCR
Chain of Tyrosine-protein kinase Fyn (Homo sapiens) (P06241 2-537 limits assumed): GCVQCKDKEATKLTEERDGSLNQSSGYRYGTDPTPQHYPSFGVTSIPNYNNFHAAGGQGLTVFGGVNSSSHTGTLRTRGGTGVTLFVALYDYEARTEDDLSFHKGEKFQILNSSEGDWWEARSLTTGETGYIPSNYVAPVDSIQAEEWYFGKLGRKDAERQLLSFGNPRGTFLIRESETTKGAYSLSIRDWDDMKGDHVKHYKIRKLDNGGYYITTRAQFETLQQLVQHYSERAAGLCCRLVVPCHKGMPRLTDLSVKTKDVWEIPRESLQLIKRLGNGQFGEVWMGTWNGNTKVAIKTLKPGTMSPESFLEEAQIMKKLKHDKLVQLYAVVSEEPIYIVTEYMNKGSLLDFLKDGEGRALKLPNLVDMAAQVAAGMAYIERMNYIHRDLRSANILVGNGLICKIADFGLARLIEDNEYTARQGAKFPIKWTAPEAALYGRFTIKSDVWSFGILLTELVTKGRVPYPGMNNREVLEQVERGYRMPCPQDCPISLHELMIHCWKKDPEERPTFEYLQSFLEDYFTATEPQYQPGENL
Chain of Casein kinase II subunit alpha (P68400 whole entry, looked up): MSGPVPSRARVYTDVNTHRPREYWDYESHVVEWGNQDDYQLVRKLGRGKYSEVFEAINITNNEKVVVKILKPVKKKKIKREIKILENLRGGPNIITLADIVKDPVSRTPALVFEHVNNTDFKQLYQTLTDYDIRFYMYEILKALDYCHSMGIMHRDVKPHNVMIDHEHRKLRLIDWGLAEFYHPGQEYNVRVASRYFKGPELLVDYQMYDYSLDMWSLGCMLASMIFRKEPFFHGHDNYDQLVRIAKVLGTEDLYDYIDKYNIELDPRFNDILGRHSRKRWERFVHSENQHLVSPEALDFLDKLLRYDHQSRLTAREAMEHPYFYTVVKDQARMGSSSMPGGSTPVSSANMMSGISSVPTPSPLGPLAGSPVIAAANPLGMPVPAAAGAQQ

% of inhibition [1]: -0.2%
% of inhibition ([2]; at 0.01 µM): 13.3%
% of inhibition ([2]; at 0.04 µM): -1.4%
% of inhibition ([2]; at 0.2 µM): 1.6%
% of inhibition ([2]; at 1 µM): 27.7%
% of inhibition ([2]; at 5 µM): 57.5%
Structure (SMILES): CC[C@@H]1[C@H](F)C(=O)N[C@@H]1COc1nccc2cc(C(N)=O)c(OC)cc12 [ZIMLOVISERTIB]

% of control [3]: 100%
Structure (SMILES): CCN(CC)CCCCNc1ncc2cc(-c3cc(OC)cc(OC)c3)c(NC(=O)NC(C)(C)C)nc2n1

Structure (SMILES): COc1cc(N(C)c2ccnc3ccc(C(F)(F)F)cc23)cc(OC)c1OC
% binding [4]: 67%

Structure (SMILES): C=CC(=O)Nc1cc(-n2c(=O)ccc3cnc4ccc(-c5ccc(NS(C)(=O)=O)cc5)cc4c32)ccc1C
% of control ([5]; at 1 µM): 100%
% of control ([5]; at 10 µM): 4.9%

Structure (SMILES): N#Cc1cccc(-c2c[nH]c3ncnc(N4CCOCC4)c23)c1
% of inhibition [6]: 16%

Structure (SMILES): C=CC(=O)Nc1ccc(C(=O)Nc2[nH]nc3c2CN(C(=O)N[C@H](CN(C)C)c2ccccc2)C3(C)C)cc1
% of engagement [7]: 2.1%

Structure (SMILES): O=C(NOC[C@H](O)CO)c1ccc(F)c(F)c1Nc1ccc(I)cc1F
% of control [8]: 100%
